Measured values: patent US10968200B2, “Salts of an LSD1 inhibitor and processes for preparing the same” (priority 2018, dated 2021)
Structures can show the parent of a compound that is named as a salt.

Columns and labels:
[1] = Competitive slurry experiment, stability relationship between Forms II-V; type: physicochemical; details: competitive slurry of Forms II-V in methanol, 23-25° C., 65-75% humidity, XRPD after 4 h and 20 h
Procedure: The transformation of Compound 1 di-HCl solid forms was evaluated in competitive slurry experiments in methanol at 23-25° C. and 65-75% humidity. The experiments were performed with a mixture of four polymorphs (Form II through Form V), according to the following procedure.
10.0 mg of Compound 1 di-HCl Form II was added to a saturated solution of Compound 1 di-HCl Form II in methanol (1.0 mL) and stirred to give a thin slurry. A mixture of Form III (10.29 mg), Form IV (10.39 mg), and Form V (10.95 mg) were added to the slurry. The mixture was stirred for 4 h at 25° C.
A portion of the mixture was filtered after 4 h. The filtered solids were analyzed by XRPD and determined to be Form II in addition to a minor amount of amorphous solid.
A portion of the mixture was filtered after 20 h. The filtered solids were analyzed by XRPD and determined to be Form II in addition to a minor amount of amorphous solid. The sample was then dried under vacuum at 46-48° C. for 36 h. The dried solids were analyzed by XRPD and determined to be Form II.

[2] = target: T1, LSD-1 enzyme (LSD1/KDM1A) (Homo sapiens, UniProt O60341); test: LANCE LSD1/KDM1A histone demethylase biochemical assay; details: 1 nM LSD-1 enzyme, 1 hour preincubation at 25° C., Biotin-labeled Histone H3 peptide substrate
T1 construct: purchased ENZO BML-SE544-0050
Procedure: LANCE LSD1/KDM1A demethylase assay-10 μL of 1 nM LSD-1 enzyme (ENZO BML-SE544-0050) in the assay buffer (50 mM Tris, pH 7.5, 0.01% Tween-20, 25 mM NaCl, 5 mM DTT) were preincubated for 1 hour at 25° C. with 0.8 μL compound/DMSO dotted in black 384 well polystyrene plates. Reactions were started by addition of 10 μL of assay buffer containing 0.4 μM Biotin-labeled Histone H3 peptide substrate: ART-K(Me1)-QTARKSTGGKAPRKQLA-GGK(Biotin) SEQ ID NO:1 (AnaSpec 64355) and incubated for 1 hour at 25° C. Reactions were stopped by addition of 10 μL 1× LANCE Detection Buffer (PerkinElmer CR97-100) supplemented with 1.5 nM Eu-anti-unmodified H3K4 Antibody (PerkinElmer TRF0404), and 225 nM LANCE Ultra Streptavidin (PerkinElmer TRF102) along with 0.9 mM Tranylcypromine-HCl (Millipore 616431). After stopping the reactions plates were incubated for 30 minutes and read on a PHERAstar FS plate reader (BMG Labtech).

relative stability of solid forms [1] | IC50 [2] [nM] | SMILES
most stable form | – | N#CCC1(N2CCC(N[C@@H]3C[C@H]3c3ccccc3)CC2)CN(S(N)(=O)=O)C1 [Form II, 3-(cyanomethyl)-3-(4-{[(1R,2S)-2-phenylcyclopropyl]amino}piperidin-1-yl)azetidine-1-sulfonamide dihydrochloride]
– | ≤ 100 | N#CCC1(N2CCC(N[C@@H]3C[C@H]3c3ccccc3)CC2)CN(S(N)(=O)=O)C1 [Compound 1, 3-(cyanomethyl)-3-(4-{[(1R,2S)-2-phenylcyclopropyl]amino}piperidin-1-yl)azetidine-1-sulfonamide]
